From PMC10761937, “Functional engineering of human iPSC‐derived parasympathetic neurons enhances responsiveness to gastrointestinal hormones” (FEBS Open Bio, 2023) come the findings set out here.

The assay has as its system NPY2R. The assay is described as follows: Ca^2+ imaging, NPY2R‐HEK293T cells. Type of assay: cell-based, human. The following applies: PYY (3-36) per Fig. S2B, Fluo‐8 AM, Ringer's solution pH 7.4, ΔF/F0, n = 10. On the procedure: HEK293T cells (Lenti‐X 293T Cell line; TaKaRa, Shiga, Japan) were maintained in Dulbecco's Modified Eagle Medium (DMEM; Fujifilm Wako Pure Chemical Industries, Osaka, Japan) supplemented with 10% fetal bovine serum (Biowest, Nuaillé, France), 1% non‐essential amino acids (NEAA) (Fujifilm Wako Pure Chemical Industries), and 1% penicillin–streptomycin (P/S) (Fujifilm Wako Pure Chemical Industries) and cultured in non‐coated culture plates at 37 °C and in an incubator with 5% CO2. The culture medium was replaced every 2–3 days. At 80–90% confluence, the cell colonies were digested into single cells using TrypLE Express (Thermo Fisher Scientific). The resulting cells were used for lentiviral transfection and agonist experiments.
Figure S1 presents the protocol used for this experiment. Lentiviral vectors were acquired from VectorBuilder (VectorBuilder Japan, Inc., Kanagawa, Japan). […]
Transduced HEK293T and neurons were incubated with 10 μM Fluo‐8 AM, a calcium indicator (AAT Bioquest, Pleasanton, CA, USA), in each culture medium (Cell lines and cell culture and Induction to parasympathetic neurons sections) at 37 °C for 30 min. […] Fluorescence (excitation: 490 nm, emission: 525 nm) was detected using a confocal spinning disk confocal laser scanning unit (CSU‐W1; Yokogawa Electric, Tokyo, Japan) and an LED light (X‐Cite 120LED; Opto Science, Tokyo, Japan). […]

“PYY: PYY (4400‐v; Peptide Institute, Inc.); PYY (3–36) in Ca2+ imaging”: the “Concentration giving response (increased intracellular Ca^2+ concentration)” value was > 10 nM.
